IC50 data for 35 compounds are collected here from patent publication US8637550B2, “Heteroaryl diamide compounds useful as MMP-13 inhibitors” (Boehringer Ingelheim International GmbH, priority 2008, dated 2014).

As usually defined, the IC50 is the concentration that inhibits the measured activity by half. The low end stands for inhibition by little substance, the high end for a need for much substance.

For this assay, the target named is MMP-13 (Homo sapiens, UniProt P45452). Kind of assay: EnzoLyte 520 Generic MMP Assay Kit, 5-FAM/QXL520 FRET peptide substrate. Format: biochemical. An excerpt: The EnzoLyte™ 520 Generic MMP Assay Kit (AnaSpec Inc.) can detect the activity of several MMPs including MMP-1, 2, 3, 7, 8, 9, 13, and 14. This kit uses a 5-FAM/QXL™520 fluorescence resonance energy transfer (FRET) peptide as an MMP substrate.
In turn, `CNC(=O)[C@@H](NC(=O)c1ccc(-c2cccc(CNC(=O)c3ccn(C(F)F)n3)c2)o1)C(C)C` [1-Difluoromethyl-1H-pyrazole-3-carboxylic acid 3-[5-((S)-2-methyl-1-methylcarbamoyl-propylcarbamoyl)-furan-2-yl]-benzylamide] displayed an IC50 of 14 nM. In the case of `CNC(=O)[C@@H](NC(=O)c1ccc(-c2cccc(CNC(=O)c3cc(C(F)(F)F)n(C)n3)c2)o1)C(C)C` [1-Methyl-5-trifluoromethyl-1H-pyrazole-3-carboxylic acid 3-[5-((S)-2-methyl-1-methylcarbamoyl-propylcarbamoyl)-furan-2-yl]-benzylamide] it was 39 nM; in that of `CNC(=O)[C@@H](NC(=O)c1ccc(-c2cccc(CNC(=O)C3CCCCN3C)c2)o1)C(C)C` (stereo partly drawn) [1-Methyl-N-[3-(5-{[(1S)-2-methyl-1-(methylcarbamoyl)propyl]carbamoyl}-2-furyl)benzyl]piperidine-2-carboxamide], 300 nM; in that of `CNC(=O)[C@@H](NC(=O)c1ccc(-c2cccc(CNC(=O)C3CCCN(C)C3)c2)o1)C(C)C` (stereo partly drawn) [1-Methyl-N-[3-(5-{[(1S)-2-methyl-1-(methylcarbamoyl)propyl]carbamoyl}-2-furyl)benzyl]piperidine-3-carboxamide], 215 nM.

As to `CNC(=O)[C@@H](NC(=O)c1ccc(-c2cccc(CNC(=O)[C@@H]3CCCN3C)c2)o1)C(C)C` [1-methyl-N-[3-(5-{[(1S)-2-methyl-1-(methylcarbamoyl)propyl]carbamoyl}-2-furyl)benzyl]-L-prolinamide], the IC50 was 380 nM. `CC[C@H](C)[C@H](NC(=O)c1csc(-c2ccc(Cl)cc2)n1)C(=O)NC` [2-(4-Chloro-phenyl)-thiazole-4-carboxylic acid ((1S,2S)-2-methyl-1-methylcarbamoyl-butyl)-amide] returned a 50% inhibitory concentration (IC50) of 380 nM. Compound `CNC(=O)[C@@H](NC(=O)c1csc(-c2ccc(Cl)cc2)n1)C1CCCCC1` [2-(4-Chlorophenyl)-N-[(1S)-1-cyclohexyl-2-(methylamino)-2-oxoethyl]-1,3-thiazole-4-carboxamide] yielded an IC50 of 470 nM. For the compound `CNC(=O)[C@@H](NC(=O)c1ccc(-c2cccc(CNC(=O)c3ccnc(Cl)n3)c2)o1)C(C)C` [2-Chloro-N-[3-(5-{[(1S)-2-methyl-1-(methylcarbamoyl)propyl]carbamoyl}-2-furyl)benzyl]pyrimidine-4-carboxamide], half-maximal inhibition (IC50) required 9 nM. This IC50 lies about 52-fold lower than the previous one. As for `CNC(=O)[C@@H](NC(=O)c1ccc(-c2cccc(CNC(=O)OCC(C)C)c2)o1)C1CCCCC1` [2-Methylpropyl [3-(5-{[(1S)-1-cyclohexyl-2-(methylamino)-2-oxoethyl]carbamoyl}furan-2-yl)benzyl]carbamate], half-maximal inhibition (IC50) was put at 240 nM. In the case of `CNC(=O)[C@@H](NC(=O)c1ccc(-c2cccc(CNC(=O)c3cc(C)no3)c2)o1)C(C)C` [3-Methyl-isoxazole-5-carboxylic acid 3-[5-((S)-2-methyl-1-methylcarbamoyl-propylcarbamoyl)-furan-2-yl]-benzylamide] it was 280 nM. `CNC(=O)[C@@H](NC(=O)c1ccc(-c2cccc(CNC(=O)c3nc(C(F)(F)F)cs3)c2)o1)C(C)C` [4-Trifluoromethyl-thiazole-2-carboxylic acid 3-[5-((S)-2-methyl-1-methylcarbamoyl-propylcarbamoyl)-furan-2-yl]-benzylamide]: the IC50 was found to be 6 nM. On to `CNC(=O)[C@@H](NC(=O)c1ccc(-c2ccc(-c3ccnc(C)c3)cn2)o1)C(C)C` [5-(2′-Methyl-[3,4′]bipyridinyl-6-yl)-furan-2-carboxylic acid ((S)-2-methyl-1-methylcarbamoyl-propyl)-amide], for which half-maximal inhibition (IC50) was put at 110 nM. As for `CNC(=O)[C@@H](NC(=O)c1ccc(-c2cccc(CNC(=O)NC(C)(C)C)c2)o1)C1CCCCC1` [5-(3-{[(tert-Butylcarbamoyl)amino]methyl}phenyl)-N-[(1S)-1-cyclohexyl-2-(methylamino)-2-oxoethyl]furan-2-carboxamide], the IC50 came to 105 nM. With `CNC(=O)[C@@H](NC(=O)c1ccc(-c2ccc(Br)cc2)o1)C1CCCCC1` [5-(4-Bromophenyl)-N-[(1S)-1-cyclohexyl-2-(methylamino)-2-oxoethyl]furan-2-carboxamide], inhibition was half-maximal at 395 nM (IC50).

For `CC[C@H](C)[C@H](NC(=O)c1ccc(-c2ccc(Cl)cc2)o1)C(=O)NC` [5-(4-Chloro-phenyl)-furan-2-carboxylic acid ((1S,2S)-2-methyl-1-methylcarbamoyl-butyl)-amide], the IC50 is 300 nM. The IC50 values of the last two compounds are within 1.5-fold of each other. In turn, `CNC(=O)[C@@H](NC(=O)c1ccc(-c2ccc(Cl)cc2)o1)C1CCCC1` [5-(4-Chlorophenyl)-N-[(1S)-1-cyclopentyl-2-(methylamino)-2-oxoethyl]furan-2-carboxamide] yielded an IC50 of 465 nM. `CNC(=O)[C@@H](NC(=O)c1ccc(-c2ccc(Cl)cc2)o1)C1CCNCC1` [5-(4-Chlorophenyl)-N-[(1S)-2-(methylamino)-2-oxo-1-(piperidin-4-yl)ethyl]furan-2-carboxamide] gave an IC50 of 430 nM.

Compound `CNC(=O)[C@@H](NC(=O)c1ccc(-c2ccc(Cl)cc2)o1)C1CCCCC1` [5-(4-chlorophenyl)-N-[(1S)-1-cyclohexyl-2-(methylamino)-2-oxoethyl]furan-2-carboxamide] showed an IC50 of 475 nM. In the case of `CCNC(=O)[C@@H](NC(=O)c1ccc(-c2ccc(C#N)cc2)o1)C1CCCCC1` [5-(4-cyanophenyl)-N-[(1S)-1-cyclohexyl-2-(ethylamino)-2-oxoethyl]furan-2-carboxamide] it was 295 nM; in that of `CNC(=O)[C@@H](NC(=O)c1ccc(-c2ccc(C#N)cc2)o1)C1CCCCC1` [5-(4-cyanophenyl)-N-[(1S)-1-cyclohexyl-2-(methylamino)-2-oxoethyl]furan-2-carboxamide], 175 nM; in that of `C[C@@H](CO)NC(=O)[C@@H](NC(=O)c1ccc(-c2ccc(C#N)cc2)o1)C1CCCCC1` [5-(4-cyanophenyl)-N-[(1S)-1-cyclohexyl-2-{[(2S)-1-hydroxypropan-2-yl]amino}-2-oxoethyl]furan-2-carboxamide], 195 nM. Next, `COC[C@H](C)NC(=O)[C@@H](NC(=O)c1ccc(-c2ccc(C#N)cc2)o1)C1CCCCC1` [5-(4-cyanophenyl)-N-[(1S)-1-cyclohexyl-2-{[(2S)-1-methoxypropan-2-yl]amino}-2-oxoethyl]furan-2-carboxamide]: 195 nM; `CNC(=O)[C@@H](NC(=O)c1ccc(-c2ccc(C#N)cc2)o1)C1CCOCC1` [5-(4-cyanophenyl)-N-[(1S)-2-(methylamino)-2-oxo-1-(tetrahydro-2H-pyran-4-yl)ethyl]furan-2-carboxamide]: 90 nM; `N#Cc1ccc(-c2ccc(C(=O)N[C@H](C(=O)NCCO)C3CCCCC3)o2)cc1` [5-(4-cyanophenyl)-N-{(1S)-1-cyclohexyl-2-[(2-hydroxyethyl)amino]-2-oxoethyl}furan-2-carboxamide]: 100 nM. In the case of `CC(O)CNC(=O)[C@@H](NC(=O)c1ccc(-c2ccc(C#N)cc2)o1)C1CCCCC1` (stereo partly drawn) [5-(4-cyanophenyl)-N-{(1S)-1-cyclohexyl-2-[(2-hydroxypropyl)amino]-2-oxoethyl}furan-2-carboxamide] it was 170 nM.

`COCCNC(=O)[C@@H](NC(=O)c1ccc(-c2ccc(C#N)cc2)o1)C1CCCCC1` [5-(4-cyanophenyl)-N-{(1S)-1-cyclohexyl-2-[(2-methoxyethyl)amino]-2-oxoethyl}furan-2-carboxamide] displayed an IC50 of 74 nM. The compound `CNC(=O)[C@@H](NC(=O)c1ccc(-c2ccc(-c3ccc(C(F)(F)F)cc3)cc2)o1)C1CCCCC1` [5-(4′-Trifluoromethyl-biphenyl-4-yl)-furan-2-carboxylic acid ((S)-cyclohexyl-methylcarbamoyl-methyl)-amide] came in with an IC50 of 373 nM. In the case of `CNC(=O)[C@@H](NC(=O)c1ccc(-c2ccc(OCc3ccccc3)cn2)o1)C(C)(C)O` [5-(5-Benzyloxy-pyridin-2-yl)-furan-2-carboxylic acid ((S)-2-hydroxy-2-methyl-1-methylcarbamoyl-propyl)-amide] it was 18 nM; in that of `CNC(=O)[C@@H](NC(=O)c1ccc(-c2ccc(OCc3ccccc3)cn2)o1)C(C)C` [5-(5-Benzyloxy-pyridin-2-yl)-furan-2-carboxylic acid ((S)-2-methyl-1-methylcarbamoyl-propyl)-amide], 18 nM. The compound `CNC(=O)[C@@H](NC(=O)c1ccc(-c2ccc(Cl)cn2)o1)C1CCCCC1` [5-(5-Chloropyridin-2-yl)-N-[(1S)-1-cyclohexyl-2-(methylamino)-2-oxoethyl]furan-2-carboxamide] had an IC50 of 245 nM.

With `CNC(=O)[C@@H](NC(=O)c1ccc(-c2ccc(C#N)cn2)o1)C1CCCCC1` [5-(5-Cyanopyridin-2-yl)-N-[(1S)-1-cyclohexyl-2-(methylamino)-2-oxoethyl]furan-2-carboxamide], inhibition was half-maximal at 69 nM (IC50). Take `CNC(=O)[C@@H](NC(=O)c1ccc(-c2ccc(-c3ccccc3)cn2)o1)C(C)C` [5-(5-Phenyl-pyridin-2-yl)-furan-2-carboxylic acid ((S)-2-methyl-1-methylcarbamoyl-propyl)-amide]: the IC50 was 79 nM. This IC50 and that of the compound before are within 1.5-fold of each other. In the case of `CNC(=O)[C@@H](NC(=O)c1ccc(-c2cccc(CNC(=O)c3cc(Br)n(C)n3)c2)o1)C(C)C` [5-Bromo-1-methyl-1H-pyrazole-3-carboxylic acid 3-[5-((S)-2-methyl-1-methylcarbamoyl-propylcarbamoyl)-furan-2-yl]-benzylamide], the IC50 is 13 nM. In the case of `CNC(=O)[C@@H](NC(=O)c1ccc(-c2ccc(NC(=O)c3cn4c(C#N)cccc4n3)cc2)o1)C1CCCCC1` [5-Cyano-N-[4-(5-{[(1S)-1-cyclohexyl-2-(methylamino)-2-oxoethyl]carbamoyl}furan-2-yl)phenyl]imidazo[1,2-a]pyridine-2-carboxamide] it was 103 nM. Consider `CNC(=O)[C@@H](NC(=O)c1ccc(-c2cccc(CNC(=O)c3cc(C(F)(F)F)n[nH]3)c2)o1)C(C)C` [5-Trifluoromethyl-2H-pyrazole-3-carboxylic acid 3-[5-((S)-2-methyl-1-methylcarbamoyl-propylcarbamoyl)-furan-2-yl]-benzylamide], for which half-maximal inhibition (IC50) was put at 160 nM.
